A short description of data set [1]: The drug is tested on Collinsella intestinalis strain: DSM13280 for biotransformation. The drug concentrations were measured before and after a 12-h incubation by liquid-chromatography-coupled mass spectrometry (LC–MS). The following applies: 2 µM.
A short description of data set [2]: The drug is tested on Bacteroides caccae strain: ATCC43185 for biotransformation. The drug concentrations were measured before and after a 12-h incubation by liquid-chromatography-coupled mass spectrometry (LC–MS). The following applies: 2 µM.
The nature of data set [3]: The drug is tested on Bacteroides finegoldii strain: DSM17565 for biotransformation. The drug concentrations were measured before and after a 12-h incubation by liquid-chromatography-coupled mass spectrometry (LC–MS). As to conditions: 2 µM.
Data set [4] in a line: The drug is tested on Bacteroides sp. WH2 strain: WH2 for biotransformation. The drug concentrations were measured before and after a 12-h incubation by liquid-chromatography-coupled mass spectrometry (LC–MS). The following applies: bacteroides sp. wh2, 12 h, 2 µM.
Data set [5] is described as follows: The drug is tested on Anaerococcus hydrogenalis strain: DSM7454 for biotransformation. The drug concentrations were measured before and after a 12-h incubation by liquid-chromatography-coupled mass spectrometry (LC–MS). As to conditions: 2 µM.
A short description of data set [6]: The drug is tested on Anaerotruncus colihominis strain: DSM17241 for biotransformation. The drug concentrations were measured before and after a 12-h incubation by liquid-chromatography-coupled mass spectrometry (LC–MS). The following applies: 2 µM.
Data set [7] can be described thus: The drug is tested on Clostridium symbiosum strain: ATCC14940 for biotransformation. The drug concentrations were measured before and after a 12-h incubation by liquid-chromatography-coupled mass spectrometry (LC–MS). The following applies: 2 µM.
Data set [8] in a line: The drug is tested on Enterococcus faecalis strain: V583 for biotransformation. The drug concentrations were measured before and after a 12-h incubation by liquid-chromatography-coupled mass spectrometry (LC–MS). As to conditions: 2 µM.
Data set [9] is described as follows: The drug is tested on Subdoligranulum variabile strain: DSM15176 for biotransformation. The drug concentrations were measured before and after a 12-h incubation by liquid-chromatography-coupled mass spectrometry (LC–MS). As to conditions: 2 µM.
Data set [10] in a line: The drug is tested on Providencia rettgeri strain: DSM1131 for biotransformation. The drug concentrations were measured before and after a 12-h incubation by liquid-chromatography-coupled mass spectrometry (LC–MS). As to conditions: 2 µM. Details: dose 2 uM, timepoint 0 vs 12 hours. In kind it is ADME.
For data set [11] the following is noted: bacteroides eggerthii, 12 h, 2 µM.
Description: The drug is tested on Bacteroides eggerthii strain: DSM20697 for biotransformation. The drug concentrations were measured before and after a 12-h incubation by liquid-chromatography-coupled mass spectrometry (LC–MS)
For data set [12] the following is noted: bacteroides fragilis, 12 h, 2 µM.
Description: The drug is tested on Bacteroides fragilis strain: DS-208 for biotransformation. The drug concentrations were measured before and after a 12-h incubation by liquid-chromatography-coupled mass spectrometry (LC–MS)
For data set [13] the following is noted: bacteroides thetaiotaomicron, 12 h, 2 µM.
Description: The drug is tested on Bacteroides thetaiotaomicron strain: VPI-5482 for biotransformation. The drug concentrations were measured before and after a 12-h incubation by liquid-chromatography-coupled mass spectrometry (LC–MS)
For data set [14] the following is noted: segatella copri, 12 h, 2 µM.
Description: The drug is tested on Prevotella copri strain: DSM18205 for biotransformation. The drug concentrations were measured before and after a 12-h incubation by liquid-chromatography-coupled mass spectrometry (LC–MS)
For data set [15] the following is noted: limosilactobacillus reuteri cf48-3a, 12 h, 2 µM.
Description: The drug is tested on Lactobacillus reuteri CF48-3A strain: BEI HM-102 for biotransformation. The drug concentrations were measured before and after a 12-h incubation by liquid-chromatography-coupled mass spectrometry (LC–MS)
The nature of data set [16]: The drug is tested on Parabacteroides merdae strain: ATCC43184 for biotransformation. The drug concentrations were measured before and after a 12-h incubation by liquid-chromatography-coupled mass spectrometry (LC–MS). The following applies: 2 µM.
The conditions of data set [17]: bacteroides thetaiotaomicron, 12 h, 2 µM. This is another data set of the same source.
Description: The drug is tested on Bacteroides thetaiotaomicron strain: 7330 for biotransformation. The drug concentrations were measured before and after a 12-h incubation by liquid-chromatography-coupled mass spectrometry (LC–MS)
A short description of data set [18]: The drug is tested on Bacteroides fragilis strain: ATCC43859 for biotransformation. The drug concentrations were measured before and after a 12-h incubation by liquid-chromatography-coupled mass spectrometry (LC–MS). The following applies: 2 µM.
Data set [19] is described as follows: The drug is tested on Bacteroides uniformis strain: ATCC8492 for biotransformation. The drug concentrations were measured before and after a 12-h incubation by liquid-chromatography-coupled mass spectrometry (LC–MS). The following applies: 2 µM.
A short description of data set [20]: The drug is tested on Escherichia coli strain: BW25113 for biotransformation. The drug concentrations were measured before and after a 12-h incubation by liquid-chromatography-coupled mass spectrometry (LC–MS). As to conditions: 2 µM.

The text below walks through data of ChEMBL document CHEMBL5303573, “Mapping human microbiome drug metabolism by gut bacteria and their genes” (Nature, 2019).

In the case of `CCN(CC)CCNC(C(=O)OCCC(C)C)c1ccccc1.Cl.Cl` (stereo not drawn), the “Bacterial Biotransformation” value in [1], in [2], in data set [3], in data set [4], in [5] and in data set [6] was “Compound NOT metabolized” throughout. Besides, the “Bacterial Biotransformation” value is listed as “Compound NOT metabolized” in [7]; “Compound NOT metabolized” in data set [8]; “Compound metabolized” in data set [9]; “Compound NOT metabolized” in data set [10]; “Compound NOT metabolized” in data set [11]; “Compound NOT metabolized” in data set [12]. The “Bacterial Biotransformation” value in data set [13], in [14] and in [15] was “Compound NOT metabolized” each time.
Regarding `C#C[C@]1(OC(C)=O)CC[C@H]2[C@@H]3CCC4=C[C@@H](OC(C)=O)CC[C@@H]4[C@H]3CC[C@@]21C` [ETHYNODIOL DIACETATE], the “Bacterial Biotransformation” value in data set [1], in data set [2], in data set [3], in data set [4], in data set [16] and in data set [5] was “Compound NOT metabolized” in each case. Besides, the “Bacterial Biotransformation” value in [6], in data set [8], in [9], in data set [10], in [11] and in data set [12] was “Compound NOT metabolized” each time. Moreover, the “Bacterial Biotransformation” value in data set [13], in [17], in data set [14] and in data set [15] was “Compound NOT metabolized” in each case.
For the compound `CCc1cccc2c3c([nH]c12)C(CC)(CC(=O)O)OCC3` (stereo not drawn) [ETODOLAC], the “Bacterial Biotransformation” value in data set [1] was “Compound NOT metabolized”; in data set [2], “Compound NOT metabolized”; in data set [3] it was “Compound NOT metabolized”; in data set [18] it was “Compound metabolized”; in data set [19], “Compound metabolized”; in data set [4] it was “Compound NOT metabolized”. In addition, the “Bacterial Biotransformation” value in data set [16], in data set [5], in [6], in data set [7], in [8] and in [20] was “Compound NOT metabolized” in each case. The “Bacterial Biotransformation” value in data set [10] was “Compound NOT metabolized”; in [11] it was “Compound NOT metabolized”; in data set [12] it was “Compound metabolized”; in [13] it was “Compound metabolized”; in data set [17] it was “Compound metabolized”; in [14], “Compound NOT metabolized”. The “Bacterial Biotransformation” value in data set [15] is on record as “Compound NOT metabolized”.
In the case of `O=C([O-])C[C@H](O)C[C@H](O)/C=C/c1c(C2CC2)nc2ccccc2c1-c1ccc(F)cc1.O=C([O-])C[C@H](O)C[C@H](O)/C=C/c1c(C2CC2)nc2ccccc2c1-c1ccc(F)cc1.[Ca+2]` [PITAVASTATIN CALCIUM], the “Bacterial Biotransformation” value in data set [1], in [2], in [18], in data set [19], in data set [4] and in data set [16] was “Compound NOT metabolized” each time. Moreover, the “Bacterial Biotransformation” value in [5], in [6], in data set [7], in [20], in data set [10] and in data set [11] was “Compound NOT metabolized” throughout. In addition, the “Bacterial Biotransformation” value in [12], in data set [13], in data set [17], in [14] and in data set [15] was “Compound NOT metabolized” each time.
Take `CC(C)NCC(O)c1ccc(NS(C)(=O)=O)cc1` (stereo not drawn) [SOTALOL]: the “Bacterial Biotransformation” value in [1] is “Compound NOT metabolized”; in data set [2], “Compound NOT metabolized”; in data set [3] it was “Compound NOT metabolized”; in [18], “Compound metabolized”; in data set [19], “Compound metabolized”; in data set [4], “Compound NOT metabolized”. Moreover, the “Bacterial Biotransformation” value in data set [16], in data set [5], in [6], in data set [7], in data set [8] and in data set [20] was “Compound NOT metabolized” in each case. Besides, the “Bacterial Biotransformation” value in data set [10] is “Compound NOT metabolized”; in data set [11], “Compound NOT metabolized”; in data set [12] it was “Compound metabolized”; in data set [13], “Compound metabolized”; in [17], “Compound metabolized”; in [14], “Compound NOT metabolized”. For the same compound, the “Bacterial Biotransformation” value in data set [15] is “Compound NOT metabolized”.
Consider `Nc1c2c(nc3ccccc13)CCCC2` [TACRINE], for which the “Bacterial Biotransformation” value in [1], in [2], in [3], in data set [19], in [4] and in [5] was “Compound NOT metabolized” each time. The “Bacterial Biotransformation” value in [6], in [7], in [8], in data set [9], in [11] and in [12] was “Compound NOT metabolized” each time. Also, the “Bacterial Biotransformation” value in data set [13], in data set [14] and in data set [15] was “Compound NOT metabolized” throughout.
On to `CC(C)(C)NC[C@H](O)COc1nsnc1N1CCOCC1.O=C(O)/C=C\C(=O)O` [TIMOLOL MALEATE], for which the “Bacterial Biotransformation” value in [1], in data set [2], in data set [3], in [19], in data set [4] and in data set [16] was “Compound NOT metabolized” in each case. Moreover, the “Bacterial Biotransformation” value in data set [5], in data set [6], in [7], in data set [8], in [9] and in [10] was “Compound NOT metabolized” throughout. Further, the “Bacterial Biotransformation” value in data set [11], in [12], in data set [13], in data set [14] and in [15] was “Compound NOT metabolized” throughout.
